These results are taken from patent publication EP0255256A2, “Antibiotics produced by actinomadura parvosata” (SMITHKLINE BECKMAN CORPORATION, priority 1986, dated 1988).

Values after ≈ are worked out from the molar mass of the structure shown.

The test system of assay [1] is Staph. aureus 209P. Description: MIC, standard microtiter assay. The class given is cell-based. Particulars: Staphylococcus aureus; Staph. aureus 209P; Table VIII; read-out: MIC. The procedure: (§1) The in vitro minimal inhibitory concentration (MIC) of the AAJ-271 complex and its factors, and vancomycin were determined for a number of microorganisms using the standard microtite'r assay procedures. The results are shown in the following tables, each of which represents a different production run of the complex.
(§2) The in vitro minimal inhibitory concentration (MIC) and the in vitro minimal bactericidal concentration (MBC) of the AAJ-271 aglycones, pseudo-aglycone and vancomycin were determined for a number of microorganisms using the standard microtiter assay procedures.

Assay [2] deals with Staph. aureus 2620. Description: MIC, standard microtiter assay. The class given is cell-based. The settings on record: Staphylococcus aureus; Staph. aureus 2620; Table VIII; read-out: MIC. The procedure: as §1, §2
The subject of assay [3] is Staph. aureus 675. In words: MIC, standard microtiter assay. The class given is cell-based. Particulars: Staphylococcus aureus; Staph. aureus 675; Table VIII; read-out: MIC. As for the experimental part: as §1, §2
Assay [4] has as its system Staph. aureus 910. In words: MIC, standard microtiter assay. The class given is cell-based. Particulars: Staphylococcus aureus; Staph. aureus 910; Table VIII; read-out: MIC. As for the experimental part:
as §1, §2

Assay [5] deals with Staph. aureus HH127. Description: MIC, standard microtiter assay. Particulars: Staphylococcus aureus; Staph. aureus HH127; Table VIII; read-out: MIC. The format is cell-based. The procedure:
as §1, §2

Assay [6] relates to Staph. epidermidis 2256. Description: MIC, standard microtiter assay. The format is cell-based. The settings on record: Staphylococcus epidermidis; Staph. epidermidis 2256; Table VIII; read-out: MIC. As for the experimental part:
as §1, §2

The test system of assay [7] is Staph. epidermidis 2265. In words: MIC, standard microtiter assay. The format is cell-based. The settings on record: Staphylococcus epidermidis; Staph. epidermidis 2265; Table VIII; read-out: MIC. The procedure:
as §1, §2

The test system of assay [8] is Staph. epidermidis 2479. In words: MIC, standard microtiter assay. The class given is cell-based. Particulars: Staphylococcus epidermidis; Staph. epidermidis 2479; Table VIII; read-out: MIC. As for the experimental part: as §1, §2
The test system of assay [9] is Staph. epidermidis 2588. In words: MIC, standard microtiter assay. The format is cell-based. Particulars: Staphylococcus epidermidis; Staph. epidermidis 2588; Table VIII; read-out: MIC. As for the experimental part:
as §1, §2

Assay [10] relates to Staph. haemolyticus 651. In words: MIC, standard microtiter assay. The class given is cell-based. Particulars: Staphylococcus haemolyticus; Staph. haemolyticus 651; Table VIII; read-out: MIC. As for the experimental part: as §1, §2
For assay [11], the system named is Staph. saprophyticus 2657. Description: MIC, standard microtiter assay. The settings on record: Staphylococcus saprophyticus; Staph. saprophyticus 2657; Table VIII; read-out: MIC. The format is cell-based. The procedure:
as §1, §2

The test system of assay [12] is Strep. faecalis 34358. In words: MIC, standard microtiter assay. The class given is cell-based. Particulars: Enterococcus faecalis; Strep. faecalis 34358; Table VIII; read-out: MIC. As for the experimental part: as §1, §2
In assay [13] the test system is Strep. faecalis 657. Description: MIC, standard microtiter assay. The class given is cell-based. The settings on record: Enterococcus faecalis; Strep. faecalis 657; Table VIII; read-out: MIC. As for the experimental part: as §1, §2
For assay [14], the system named is Strep. pyogenes (Group A). In words: MIC, standard microtiter assay. The format is cell-based. Particulars: Streptococcus pyogenes; Strep. pyogenes (Group A); Table VIII; read-out: MIC. The procedure: as §1, §2
For assay [15], the system named is Staph. aureus 209P vancomycin resistant mutant. Description: MIC, standard microtiter assay. The settings on record: Staphylococcus aureus, read-out: MIC in μg/ml. The class given is cell-based. As for the experimental part: as §2
Assay [16] has as its system Staph. epidermidis 2261. Description: MIC, standard microtiter assay. The format is cell-based. The settings on record: Staphylococcus epidermidis; Staph. epidermidis 2261; Table VIII; read-out: MIC. As for the experimental part:
as §2

Assay [17] relates to Staph. aureus 2620. Description: MBC, standard assay procedures. The settings on record: Staphylococcus aureus; Staph. aureus 2620; Table VIII; read-out: MBC. The class given is cell-based. As for the experimental part: (§3) The in vitro minimal bactericidal concentration (MBC) of the AAJ-271 C, C2 and C3 factors and vancomycin were determined for a number of microorganisms using standard assay procedures.
as §2

The test system of assay [18] is Staph. aureus 675. Description: MBC, standard assay procedures. The class given is cell-based. The settings on record: Staphylococcus aureus; Staph. aureus 675; Table VIII; read-out: MBC. As for the experimental part:
as §3, §2

Assay [19] concerns Staph. aureus HH127. In words: MBC, standard assay procedures. The format is cell-based. Particulars: Staphylococcus aureus; Staph. aureus HH127; Table VIII; read-out: MBC. The procedure: as §3, §2
For assay [20], the system named is Staph. epidermidis 2265. Description: MBC, standard assay procedures. The class given is cell-based. Particulars: Staphylococcus epidermidis; Staph. epidermidis 2265; Table VIII; read-out: MBC. The procedure:
as §3, §2

Assay [21] has as its system Staph. epidermidis 2479. In words: MBC, standard assay procedures. The format is cell-based. The settings on record: Staphylococcus epidermidis; Staph. epidermidis 2479; Table VIII; read-out: MBC. As for the experimental part:
as §3, §2

Assay [22] concerns Staph. haemolyticus 651. Description: MBC, standard assay procedures. The settings on record: Staphylococcus haemolyticus; Staph. haemolyticus 651; Table VIII; read-out: MBC. The format is cell-based. As for the experimental part:
as §3, §2

In assay [23] the test system is Strep. faecalis 34358. In words: MBC, standard assay procedures. The format is cell-based. The settings on record: Enterococcus faecalis; Strep. faecalis 34358; Table VIII; read-out: MBC. As for the experimental part:
as §3, §2

For assay [24], the system named is Strep. faecalis 657. In words: MBC, standard assay procedures. The format is cell-based. The settings on record: Enterococcus faecalis; Strep. faecalis 657; Table VIII; read-out: MBC. The procedure: as §3, §2
Assay [25] concerns Staph. aureus 209P vancomycin resistant mutant. In words: MBC, standard assay procedures. The class given is cell-based. Particulars: Staphylococcus aureus, read-out: MBC in μg/ml. As for the experimental part:
as §2

Assay [26] has as its system Staph. aureus 209P. Description: MBC, standard assay procedures. The class given is cell-based. Particulars: Staphylococcus aureus; Staph. aureus 209P; Table VIII; read-out: MBC. As for the experimental part:
as §2

Assay [27] relates to Staph. aureus 910. Description: MBC, standard assay procedures. The class given is cell-based. The settings on record: Staphylococcus aureus; Staph. aureus 910; Table VIII; read-out: MBC. As for the experimental part: as §2
Assay [28] relates to Staph. epidermidis 2256. Description: MBC, standard assay procedures. The class given is cell-based. The settings on record: Staphylococcus epidermidis; Staph. epidermidis 2256; Table VIII; read-out: MBC. The procedure: as §2
Assay [29] relates to Staph. epidermidis 2261. In words: MBC, standard assay procedures. The class given is cell-based. The settings on record: Staphylococcus epidermidis; Staph. epidermidis 2261; Table VIII; read-out: MBC. The procedure: as §2
Assay [30] has as its system Staph. epidermidis 2588. In words: MBC, standard assay procedures. The class given is cell-based. The settings on record: Staphylococcus epidermidis; Staph. epidermidis 2588; Table VIII; read-out: MBC. As for the experimental part: as §2
In assay [31] the test system is Staph. saprophyticus 2657. In words: MBC, standard assay procedures. The class given is cell-based. The settings on record: Staphylococcus saprophyticus; Staph. saprophyticus 2657; Table VIII; read-out: MBC. As for the experimental part: as §2
Assay [32] relates to Strep. pyogenes (Group A). In words: MBC, standard assay procedures. The format is cell-based. Particulars: Streptococcus pyogenes; Strep. pyogenes (Group A); Table VIII; read-out: MBC. The procedure: as §2
Another assay has as its system A. parvosata. In words: Susceptibility of A. parvosata to antibiotic disks. The format is cell-based, Actinomadura parvosata. The settings on record: BBL susceptibility disks on nutrient agar; rifampin 5 ug, penicillin 10 U; 1 week at 28°C. As for the experimental part:
Susceptibility of A. parvosata to antibiotics was examined by placing BBL susceptibility disks on nutrient agar plates seeded with A. parvosata. Plates were placed at 4°C for 1 hour to permit diffusion of the antibiotics. Diameters of the zones of inhibition were measured after incubation for 1 week at 28°C.

For the molecule `CN(C)C1C(=O)NC2Cc3ccc(cc3)Oc3cc4cc(c3O)Oc3ccc(cc3Cl)C(O)C3NC(=O)C(NC(=O)C4NC(=O)C(NC2=O)c2cc(cc(O)c2Cl)Oc2cc1ccc2O)c1ccc(O)c(c1)-c1c(O)cc(O)cc1C(C(=O)O)NC3=O` (stereo not shown) [Aglycone 2], the MIC is 0.4 µg/mL (≈ 0.326 µM) in the assay with Staph. aureus 209P [1]; 0.8 µg/mL (≈ 0.652 µM) in the assay with Staph. aureus 2620 [2]; 0.4 µg/mL (≈ 0.326 µM) with Staph. aureus 675 [3]; 0.4 µg/mL (≈ 0.326 µM) with Staph. aureus 910 [4]; 0.4 µg/mL (≈ 0.326 µM) in the assay with Staph. aureus HH127 [5]; 0.8 µg/mL (≈ 0.652 µM) in the assay with Staph. epidermidis 2256 [6]. Also, the MIC in the assay with Staph. epidermidis 2265 [7] amounted to 0.8 µg/mL (≈ 0.652 µM); in the assay on Staph. epidermidis 2479 [8], 0.8 µg/mL (≈ 0.652 µM); with Staph. epidermidis 2588 [9] it was 1.6 µg/mL (≈ 1.3 µM); in the assay on Staph. haemolyticus 651 [10], 6.3 µg/mL (≈ 5.13 µM); in assay [11], 0.8 µg/mL (≈ 0.652 µM); in the assay on Strep. faecalis 34358 [12] it was 1.6 µg/mL (≈ 1.3 µM). Also, the MIC with Strep. faecalis 657 [13] was 1.6 µg/mL (≈ 1.3 µM); in assay [14], 1.6 µg/mL (≈ 1.3 µM); in assay [15], 25 µg/mL (≈ 20.4 µM); in the assay with Staph. epidermidis 2261 [16], 1.6 µg/mL (≈ 1.3 µM). The MBC with Staph. aureus 2620 [17] came out at 0.8 µg/mL (≈ 0.652 µM); with Staph. aureus 675 [18] it was 0.4 µg/mL (≈ 0.326 µM); in the assay with Staph. aureus HH127 [19], 0.4 µg/mL (≈ 0.326 µM); in the assay on Staph. epidermidis 2265 [20], 0.8 µg/mL (≈ 0.652 µM); with Staph. epidermidis 2479 [21] it was 0.8 µg/mL (≈ 0.652 µM); with Staph. haemolyticus 651 [22], 6.3 µg/mL (≈ 5.13 µM). Further, the MBC was more than 50 µg/mL in the assay on Strep. faecalis 34358 [23]; 6.3 µg/mL (≈ 5.13 µM) in the assay with Strep. faecalis 657 [24]; 25 µg/mL (≈ 20.4 µM) in assay [25]; 0.4 µg/mL (≈ 0.326 µM) in the assay on Staph. aureus 209P [26]; 0.4 µg/mL (≈ 0.326 µM) in the assay on Staph. aureus 910 [27]; 0.8 µg/mL (≈ 0.652 µM) with Staph. epidermidis 2256 [28]. The MBC with Staph. epidermidis 2261 [29] turned out to be 1.6 µg/mL (≈ 1.3 µM); in the assay on Staph. epidermidis 2588 [30], 3.1 µg/mL (≈ 2.53 µM); in assay [31], 0.8 µg/mL (≈ 0.652 µM); in assay [32], 0.8 µg/mL (≈ 0.652 µM).
On to `CO[C@H]1/C=C/O[C@@]2(C)Oc3c(C)c(O)c4c(O)c(c(/C=N/N5CCN(C)CC5)c(O)c4c3C2=O)NC(=O)/C(C)=C\C=C\[C@H](C)[C@H](O)[C@@H](C)[C@@H](O)[C@@H](C)[C@H](OC(C)=O)[C@@H]1C` [rifampin], for which the “susceptibility of A. parvosata to antibiotic disks (zones of inhibition)” value in the assay with A. parvosata is “resistant”.
With penicillin, the “susceptibility of A. parvosata to antibiotic disks (zones of inhibition)” value in the assay on A. parvosata was “resistant”.
